Where two headings read alike, the source gives them in different places.
System: Hepatitis C Virus RNA in cultured hepatoma (HuH-7) cells containing a subgenomic HCV Replicon
Assay: Assay for inhibition of HCV RNA replication (replicon assay, in situ ribonuclease protection SPA)
Type: cell-based
[1] = Hepatitis C virus, Huh-7, read-out: Replicon Assay EC50
[2] = Hepatitis C virus, Huh-7, read-out: Replicon Assay EC50, first eluting diastereomer, HuH-7 subgenomic HCV replicon
[3] = Hepatitis C virus, Huh-7, read-out: Replicon Assay EC50, second eluting diastereomer, HuH-7 subgenomic HCV replicon
[4] = mixture of diastereomers tested, HuH-7 subgenomic HCV replicon, read-out: Replicon Assay EC50

| Structure (SMILES) | EC50 [1] [nM] | EC50 (read-out: Replicon Assay EC50) [nM] | EC50 [2] [nM] | EC50 [3] [nM] | also measured |
| --- | --- | --- | --- | --- | --- |
| CCCC(=O)OC[C@H](C)NP(=O)(OC[C@H]1O[C@@H](n2ccc(N)nc2=O)[C@](C)(O)[C@@H]1O)Oc1ccccc1 (mixture of isomers) [Example 2, 5′-O-[{[(±)-2-(Butyryloxy)-1-methylethyl]-amino}-(phenoxy)-phosphoryl]-2′-C-methylcytidine] | 2800 | 4000 |  |  |  |
| C[C@@H](COC(=O)C(C)(C)C)NP(=O)(OC[C@H]1O[C@@H](n2ccc(N)nc2=O)[C@](C)(O)[C@@H]1O)Oc1ccccc1 (single isomer, unassigned) [Example 1] | 1600 | 900 |  |  |  |
| CC[C@H](C)[C@@H](COC(=O)C(C)(C)C)NP(=O)(OC[C@H]1O[C@@H](n2ccc(N)nc2=O)[C@](C)(O)[C@@H]1O)Oc1ccccc1 (single isomer, unassigned) [Example 6] | 2000 | 1800 |  |  |  |
| CC(C)C(=O)OC[C@H](Cc1ccccc1)NP(=O)(OC[C@H]1O[C@@H](n2ccc(N)nc2=O)[C@](C)(O)[C@@H]1O)Oc1ccccc1 (single isomer, unassigned) [Example 11] | 500 | 900 |  |  |  |
| CC(C)C(=O)O[C@@H](C)CNP(=O)(OC[C@H]1O[C@@H](n2ccc(N)nc2=O)[C@](C)(O)[C@@H]1O)Oc1ccccc1 (single isomer, unassigned) [Example 12] | 2200 | 2400 |  |  |  |
| C[C@@]1(O)[C@H](O)[C@@H](COP(=O)(NCCOC(=O)c2ccccc2)Oc2ccccc2)O[C@H]1n1ccc(N)nc1=O (single isomer, unassigned) [Example 16, cytidine, 5′-O-[[[2-(benzoyloxy)ethyl]amino]phenoxyphosphinyl]-2′-C-methyl-] |  |  | 2200 | 5000 |  |
| CCC(CC)C(=O)OCCNP(=O)(OC[C@H]1O[C@@H](n2ccc(N)nc2=O)[C@](C)(O)[C@@H]1O)Oc1ccccc1 (single isomer, unassigned) [Example 20, 5′-O-[({2-[(2-ethylbutanoyl)oxy]ethyl}amino)(phenoxy)phosphoryl]-2′-C-methylcytidine] |  |  | 2800 | 600 |  |
| C[C@@]1(O)[C@H](O)[C@@H](COP(=O)(NCCOC(=O)C2CCCCCC2)Oc2ccccc2)O[C@H]1n1ccc(N)nc1=O (single isomer, unassigned) [Example 21, 5′-O-[({2-[(cycloheptylcarbonyl)oxy]ethyl}amino)(phenoxy)phosphoryl]-2′-C-methylcytidine] |  |  | 700 | 1200 |  |
| CC(C)C(=O)O[C@@H]1CCN(P(=O)(OC[C@H]2O[C@@H](n3ccc(N)nc3=O)[C@](C)(O)[C@@H]2O)Oc2ccccc2)C1 (single isomer, unassigned) [Example 22] |  |  | > 5000 | > 5000 |  |
| CC(C)(C)C(=O)OC[C@H](Cc1ccccc1)NP(=O)(OC[C@H]1O[C@@H](n2ccc(N)nc2=O)[C@](C)(O)[C@@H]1O)Oc1ccccc1 (stereo partly drawn) [Example 8, 5′-O-[[[(1S)-2-[(2,-dimethyl-1-oxopropoxy)-1-(phenylmethyl)]-ethyl]amino]-(phenoxy)-phosphinyl]-2′-C-methylcytidine] |  |  |  |  | EC50 [4]: 1000 nM |
| CC1(C)O[C@@H]2[C@@H](COP(=O)(N[C@H](COC(=O)C(C)(C)C)Cc3ccccc3)Oc3ccccc3)O[C@@H](n3ccc(N)nc3=O)[C@]2(C)O1 (stereo partly drawn) [Example 14, cytidine, 5′-O-[[[(1S)-2-(2,2-dimethyl-1-oxopropoxy)-1-(phenylmethyl)ethyl]amino]phenoxyphosphinyl]-2′-C-methyl-2′,3′-O-(1-methylethylidene)-] |  |  |  |  | EC50 (first eluting diastereomer, HuH-7 subgenomic HCV replicon, read-out: Replicon Assay EC50): > 5000 nM; EC50 (second eluting diastereomer, HuH-7 subgenomic HCV replicon, read-out: Replicon Assay EC50): > 5000 nM |
| CCCCC(COC(=O)C(C)(C)C)NP(=O)(OCC1OC(n2ccc(N)nc2=O)C2(C)OC(C)(C)OC12)Oc1ccccc1 [Example 15, cytidine, 5′-O-[[[(1S)-1-[(2,2-dimethyl-1-oxopropoxy)methyl]pentyl]amino]phenoxyphosphinyl]-2′-C-methyl-2′,3′-O-(1-methylethylidene)-] |  |  |  |  | EC50 [4]: > 10000 nM |

Reference: patent US8071568B2, “Nucleoside aryl phosphoramidates for the treatment of RNA-dependent RNA viral infection” (Merck Sharp & Dohme Corp., priority 2007, dated 2011)
